The results in this text go back to patent publication US10239887B2, “Positive allosteric modulators of the muscarinic acetylcholine receptor M4” (Vanderbilt University, priority 2016, dated 2019).

Where a name gives a salt, the structure may show the parent alone. Read-outs that look alike come from different tables or passages of the source.

In this assay the target is T1, human mAChR M4 (Homo sapiens, UniProt P08173).
T1 sequence (P08173 1-479): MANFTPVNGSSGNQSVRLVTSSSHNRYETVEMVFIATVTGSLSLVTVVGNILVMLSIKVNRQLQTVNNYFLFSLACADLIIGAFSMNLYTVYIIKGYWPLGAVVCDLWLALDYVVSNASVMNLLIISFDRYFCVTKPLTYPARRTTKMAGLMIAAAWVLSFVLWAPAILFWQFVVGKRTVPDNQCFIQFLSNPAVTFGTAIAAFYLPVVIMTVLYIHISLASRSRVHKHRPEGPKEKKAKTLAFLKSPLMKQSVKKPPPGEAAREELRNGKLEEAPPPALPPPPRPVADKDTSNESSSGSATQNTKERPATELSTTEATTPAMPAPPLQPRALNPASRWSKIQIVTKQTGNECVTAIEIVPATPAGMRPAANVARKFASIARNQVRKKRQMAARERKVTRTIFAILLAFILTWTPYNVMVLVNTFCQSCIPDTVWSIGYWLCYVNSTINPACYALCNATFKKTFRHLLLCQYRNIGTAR
In words: mAChR M4 cell-based functional assay (calcium flux), human M4.

The mark [1] stands for this setting: Human M4 EC50 (nM), Table 10, calcium flux, PAM activity with EC20 acetylcholine.
Setting [2] is: Table 10, % ACh maximum at 30 μM.
Setting [3] is: Human M4, % ACh maximum at 30 μM.
The mark [4] stands for this setting: Human M4 EC50, CHO-K1 hM4-Gqi5 cells, calcium flux, increase in EC20 acetylcholine response.
Setting [5] is: Human M4 EC50 (nM), Table 11, calcium flux, PAM activity with EC20 acetylcholine.
Where [6] appears, read: Table 11, % ACh maximum at 30 μM.

For the molecule `CCC(O)(CC)c1ccc(CNc2ncnc3c2sc2nnc(C)c(C)c23)cc1` [Compound 144, 3-[4-[[(3,4-dimethylpyrimido [4′,5′:4,5]thieno[2,3-c]pyridazin-8-yl)amino]methyl]phenyl]pentan-3-ol], under setting [1], the concentration for a half-maximal effect (EC50) worked out at 986 nM. Besides, under setting [2], the maximal response (Emax) amounted to 78.3%.
For `CCC(C)(O)c1ccc(CNc2ncnc3c2sc2nnc(C)c(C)c23)cc1` (centres unmarked) [Compound 116, 2-[4-[[(3,4-dimethylpyrimido [4′,5′:4,5]thieno[2,3-c]pyridazin-8-yl)amino]methyl]phenyl]butan-2-ol] the same measures were 151 nM and 50%.
For `Cc1nnc2sc3c(NCc4ccc(C(=O)NC5(C)CC5)cc4)ncnc3c2c1C` [Compound 149, 4-[[(3,4-dimethylpyrimido [4′,5′:4,5]thieno[2,3-c]pyridazin-8-yl)amino]methyl]-N-(1-methylcyclopropyl) benzamide] the same measures were 156 nM and 78.3%.
For `Cc1nnc2sc3c(N4CC(C)(N)C4)ncnc3c2c1C` [Compound 98, 1-(3,4-dimethylpyrimido [4′,5′:4,5]thieno[2,3-c]pyridazin-8-yl)-3-methyl-azetidin-3-amine dihydrochloride] the same measures were 2390 nM and 50.1%.
For the molecule `COc1ccc(CNc2ncnc3c2oc2nnc(C)c(C)c23)cc1F` [Compound 75, N-[(3-fluoro-4-methoxy-phenyl)methyl]-3,4-dimethyl-pyrimido[4′,5′:4,5]furo[2,3-c]pyridazin-8-amine], the Emax under setting [3] was found to be 36.4%.
For `Cc1nnc2sc3c(NCc4ccc(F)c(C(=O)NC5CCCC5)c4)ncnc3c2c1C` [Compound 178, N-cyclopentyl-5-[[(3,4-dimethylpyrimido [4′,5′:4,5]thieno[2,3-c]pyridazin-8-yl)amino]methyl]-2-fluoro-benzamide], the EC50 under setting [1] amounted to 1030 nM. Besides, the Emax under setting [2] worked out at 97.1%.
Regarding `Cc1nc2sc3c(NCc4ccc(C5(O)CCC5)cc4)ncnc3c2c(C)c1Cl` [Compound 276, 1-[4-[[(8-chloro-7,9-dimethyl-pyrido [3′,2′:4,5]thieno[3,2-d]pyrimidin-4-yl)amino]methyl]phenyl]cyclobutanol], the EC50 (Human M4 EC50 (nM), Table 10, unit μM (bounds)) is greater than 10000 nM. Moreover, the Emax under setting [2] was 45.3%.
Take `Cc1cc(C)c2c(n1)oc1c(NC3CN(c4cc(Cl)ncc4Cl)C3)ncnc12` [Compound 60, N-[1-(2,5-dichloro-4-pyridyl)azetidin-3-yl]-7,9-dimethyl-pyrido[3′,2′:4,5]furo[3,2-d]pyrimidin-4-amine dihydrochloride]: the maximum response (Emax) stood at 49.3%. The EC50 under setting [4] came out at 1490 nM.
As to `Cc1nnc2sc3c(N4CC(Oc5ccccc5)C4)ncnc3c2c1C` [Compound 33, 3,4-dimethyl-8-(3-phenoxyazetidin-1-yl) pyrimido[4′,5′:4,5]thieno [2,3-c]pyridazine], the Emax under setting [3] stood at 54%. The concentration giving a half-maximal response (EC50) under setting [4] came out at 4430 nM.
In the case of `COc1ccc(C2CC2Nc2ncnc3c2sc2nc(C)cc(C)c23)cc1` (centres unmarked) [Compound 202, N-[2-(4-methoxyphenyl)cyclopropyl]-7,9-dimethyl-pyrido [3′,2′:4,5]thieno[3,2-d] pyrimidin-4-amine], the half-maximal effective concentration (EC50) under setting [1] came to 1640 nM. Also, under setting [2], the Emax turned out to be 61.1%.
`Cc1nnc2sc3c(N4CC(Nc5ncccc5C#N)C4)ncnc3c2c1C` [Compound 141, 2-((1-(3,4-dimethylpyrimido [4′,5′:4,5]thieno[2,3-c]pyridazin-8-yl)azetidin-3-yl)amino) nicotinonitrile 2,2,2-trifluoroacetate]: the EC50 under setting [1] is 590 nM. Besides, the maximal response (Emax) under setting [2] was 66.4%.
For `COc1cc(F)c(CNc2ncnc3c2sc2nnc(C)c(C)c23)c(F)c1` [Compound 121, N-[(2,6-difluoro-4-methoxy-phenyl)methyl]-3,4-dimethyl-pyrimido [4′,5′:4,5]thieno[2,3-c] pyridazin-8-amine] the same measures were 579 nM and 100%.
In the case of `Cc1nc2oc3c(NCc4ccc(C(C)(C)O)cc4)ncnc3c2c(C)c1Cl` [Compound 39, 2-[4-[[(8-chloro-7,9-dimethyl-pyrido[3′,2′:4,5]furo[3,2-d]pyrimidin-4-yl)amino]methyl]phenyl] propan-2-ol], under setting [3], the Emax worked out at 61.8%. Also, the EC50 under setting [4] was determined as 110 nM.
As for `Cc1nnc2oc3c(NCc4ccc(C(C)(O)C(F)(F)F)cc4)ncnc3c2c1C` (centres unmarked) [Compound 312, 2-[4-[[(3,4-dimethylpyrimido [4′,5′:4,5]furo[2,3-c]pyridazin-8-yl)amino]methyl]phenyl]-1,1,1-trifluoro-propan-2-ol], under setting [1], the EC50 turned out to be 909 nM. Also, the maximal effect (Emax) under setting [2] is 70.2%.
In the case of `Cc1nnc2sc3c(NC4CN(c5ncc(F)cn5)C4)ncnc3c2c1C` [Compound 84, N-[1-(5-fluoropyrimidin-2-yl)azetidin-3-yl]-3,4-dimethyl-pyrimido [4′,5′:4,5]thieno[2,3-c] pyridazin-8-amine], the EC50 came to 27.6 nM. For the same molecule, the Emax under setting [2] turned out to be 64.9%.
Consider `Cc1nnc2sc3c(NCc4ccc(C(=O)NC5CC(F)C5)c(Cl)c4)ncnc3c2c1C` (centres unmarked) [Compound 321, 2-chloro-4-[[(3,4-dimethylpyrimido [4′,5′:4,5]thieno[2,3-c]pyridazin-8-yl)amino]methyl]-N-(3-fluorocyclobutyl) benzamide], for which the EC50 under setting [5] amounted to 102 nM. Moreover, under setting [6], the maximal effect (Emax) was 80.6%.
For `Cc1nnc2sc3c(NCc4ccc(-c5cccnc5F)cc4)ncnc3c2c1C` [Compound 29, N-(4-(2-fluoropyridin-3-yl)benzyl)-3,4-dimethylpyrimido [4′,5′:4,5]thieno[2,3-c] pyridazin-8-amine], the Emax under setting [3] amounted to 61%. Further, under setting [4], the EC50 is 4050 nM.
For the molecule `Cc1nnc2sc3c(NC4CC4)ncnc3c2c1C` [Compound 25, N-cyclopropyl-3,4-dimethylpyrimido [4′,5′:4,5]thieno[2,3-c] pyridazin-8-amine], the Emax under setting [3] was 79%. The EC50 under setting [4] worked out at 468 nM.
On to `Cc1nnc2sc3c(NCc4ccc(-n5cccn5)cc4)ncnc3c2c1C` [Compound 345, 3,4-dimethyl-N-[(4-pyrazol-1-ylphenyl)methyl] pyrimido[4′,5′:4,5]thieno [2,3-c]pyridazin-8-amine], for which the concentration for a half-maximal effect (EC50) under setting [5] is 830 nM. In addition, the Emax under setting [6] was found to be 87.1%.
As for `Cc1cc(C)c2c(n1)oc1c(N3CC4(COC4)C3)ncnc12` [Compound 56, 7,9-dimethyl-4-(2-oxa-6-azaspiro[3.3]heptan-6-yl)pyrido[3′,2′:4,5]furo[3,2-d]pyrimidine], the Emax under setting [3] was determined as 37.7%. Moreover, under setting [4], the 50% effective concentration (EC50) worked out at 3370 nM.
As to `CC(=O)OCc1nnc2sc3c(NCc4ccc(C(C)(C)O)cc4)ncnc3c2c1C` [Compound 376, [8-[[4-(1-hydroxy-1-methyl-ethyl)phenyl]methylamino]-4-methyl-pyrimido[4′,5′:4,5]thieno[2,3-c]pyridazin-3-yl]methyl acetate], under setting [6], the Emax was 59.4%.
For the molecule `Cc1cc(C)c2c(n1)oc1c(NCc3ccc(S(C)(=O)=O)cc3)ncnc12` [Compound 292, 7,9-dimethyl-N-[(4-methylsulfonylphenyl)methyl]pyrido[3′,2′:4,5]furo [3,2-d]pyrimidin-4-amine hydrochloride], the concentration for a half-maximal effect (EC50) under setting [1] turned out to be 1200 nM. For the same molecule, under setting [2], the Emax stood at 42.5%.
Turning to `Cc1c(Cl)nnc2sc3c(NC4CCC4)ncnc3c12` [Compound 210, 3-chloro-N-cyclobutyl-4-methyl-pyrimido [4′,5′:4,5]thieno[2,3-c] pyridazin-8-amine], the concentration for a half-maximal effect (EC50) under setting [1] stood at 44.6 nM. Under setting [2], the Emax is 65.1%.
For the molecule `COCCNC(=O)c1ccc(CNc2ncnc3c2sc2nnc(C)c(C)c23)cc1Cl` [Compound 324, 2-chloro-4-[[(3,4-dimethylpyrimido [4′,5′:4,5]thieno[2,3-c]pyridazin-8-yl)amino]methyl]-N-(2-methoxyethyl) benzamide], the EC50 under setting [5] worked out at 164 nM. Moreover, the Emax under setting [6] was 84%.
As to `Cc1cc(C)c2c(n1)oc1c(NC3CN(c4ncc(F)cn4)C3)ncnc12` [Compound 289, N-[1-(5-fluoropyrimidin-2-yl)azetidin-3-yl]-7,9-dimethyl-pyrido[3′,2′:4,5]furo[3,2-d]pyrimidin-4-amine hydrochloride], the maximum response (Emax) under setting [2] was 34.9%.
As to `Cc1nnc2oc3c(NC4CC(F)(F)C4)ncnc3c2c1C` [Compound 72, N-(3,3-difluorocyclobutyl)-3,4-dimethyl-pyrimido [4′,5′:4,5]furo[2,3-c]pyridazin-8-amine], under setting [3], the Emax was determined as 57.9%. Moreover, the EC50 under setting [4] is 1750 nM.
Turning to `Cc1nnc2sc3c(NCc4ccc(C(=O)NC5CC(F)C5)cc4)ncnc3c2c1C` (centres unmarked) [Compound 151, 4-[[(3,4-dimethylpyrimido [4′,5′:4,5]thieno[2,3-c]pyridazin-8-yl)amino]methyl]-N-(3-fluorocyclobutyl) benzamide], under setting [1], the EC50 was found to be 27.7 nM. In addition, the maximal effect (Emax) under setting [2] turned out to be 87.4%.
As to `Cc1nnc2sc3c(NCC45CC(C(C)(C)O)(C4)C5)ncnc3c2c1C` [Compound 138, 2-[1-[[(3,4-dimethylpyrimido [4′,5′:4,5]thieno[2,3-c]pyridazin-8-yl)amino]methyl]-3-bicyclo[1.1.1]pentanyl]propan-2-ol], the EC50 under setting [1] is 3090 nM. Also, the Emax under setting [2] is 85%.
